Laboratory results from patent US11566002B2, “Substituted tetrahydrocyclopenta[C]pyrroles, substituted dihydropyrrolizines, analogues thereof, and methods using same” (priority 2018, dated 2023).
pEC50: −log10 of the molar value.

The molecules below were run on HBV rcDNA (assay: HepDE19 assay with bDNA quantitation of HBV rcDNA). Settings: HepDE19 cells, Tet-free medium, 7 day-incubation, rcDNA measured by Quantigene 2.0 bDNA assay, top concentration 25 μM; read-out: DE-19 bDNA EC50.
Assay type: cell-based, hepatitis B virus
How it was run: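 Cytotoxicity (CC50) measured by CellTiter-Glo ATP content in parallel plates, 5,000 cells/well, 4 days. Antiviral EC50 and EC90 derived from HBV rcDNA bDNA levels after 7-day compound exposure (top 25 μM, ½-log 8-point, 0.5% DMSO) of Tet-withdrawn HepDE19 cells at 50,000/well, as % inhibition versus untreated.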

**Q.** With `Cn1c(C(=O)Nc2ccc(F)c(Cl)c2)c2c(c1C(F)(F)F)C(NC(=O)OCc1cn[nH]n1)CC2` (single isomer, unassigned) [Compound 132, (2H-1,2,3-Triazol-4-yl)methyl (1-((3-chloro-4-fluorophenyl)carbamoyl)-2-methyl-3-(trifluoromethyl)-2,4,5,6-tetrahydrocyclopenta[c]pyrrol-4-yl)carbamate] as the molecule, how does the pEC50 read?
**A.** The pEC50 was 4.89.

**Q.** `Cn1c(C(=O)Nc2ccc(F)c(Cl)c2)c2c(c1C(F)(F)F)C(NC(=O)OCc1nc[nH]n1)CC2` (single isomer, unassigned) [Compound 126, (1H-1,2,4-Triazol-3-yl)methyl (1-((3-chloro-4-fluorophenyl)carbamoyl)-2-methyl-3-(trifluoromethyl)-2,4,5,6-tetrahydrocyclopenta[c]pyrrol-4-yl)carbamate] was tested. Which pEC50 did it give?
**A.** The pEC50 was 5.06.

**Q.** How did the pEC50 turn out when `Cn1c(Cl)c2c(c1C(=O)Nc1ccc(F)c(Cl)c1)CCCC2NC(=O)OCc1nc[nH]n1` (single isomer, unassigned) [Compound 134, (1H-1,2,4-Triazol-3-yl)methyl (3-chloro-1-((3-chloro-4-fluorophenyl)carbamoyl)-2-methyl-4,5,6,7-tetrahydro-2H-isoindol-4-yl)carbamate] was run?
**A.** Its pEC50 is 5.72.

**Q.** How did the pEC50 turn out when `Cn1cc2c(c1C(=O)Nc1ccc(F)c(Cl)c1)CCC2NC(=O)OCc1nc[nH]n1` (single isomer, unassigned) [Compound 58, (1H-1,2,4-Triazol-3-yl)methyl (1-((3-chloro-4-fluorophenyl)carbamoyl)-2-methyl-2,4,5,6-tetrahydrocyclopenta[c]pyrrol-4-yl)carbamate] was run?
**A.** The pEC50 was 6.01.

**Q.** `CNC(=O)NC1CCc2c1c[nH]c2C(=O)Nc1ccc(F)c(Cl)c1` (single isomer, unassigned) [Compound 11, N-(3-Chloro-4-fluorophenyl)-4-(3-methylureido)-2,4,5,6-tetrahydrocyclopenta[c]pyrrole-1-carboxamide] was tested. Which pEC50 did it give?
**A.** Its pEC50 is 5.62.

**Q.** How did the pEC50 turn out when `Cn1cc2c(c1C(=O)Nc1ccc(F)c(Cl)c1)CCC2NC(=O)OCCC#N` (single isomer, unassigned) [Compound 49, 2-Cyanoethyl (1-((3-chloro-4-fluorophenyl)carbamoyl)-2-methyl-2,4,5,6-tetrahydrocyclopenta[c]pyrrol-4-yl)carbamate] was run?
**A.** Its pEC50 is 7.22.

**Q.** With `Cn1cnc(COC(=O)NC2CCc3c2cn(C)c3C(=O)Nc2ccc(F)c(Cl)c2)n1` (single isomer, unassigned) [Compound 26, (1-Methyl-1H-1,2,4-triazol-3-yl)methyl (1-((3-chloro-4-fluorophenyl)carbamoyl)-2-methyl-2,4,5,6-tetrahydrocyclopenta[c]pyrrol-4-yl)carbamate] as the molecule, how does the pEC50 read?
**A.** The pEC50 was 7.30.

**Q.** With `Cn1cnc(COC(=O)NC2CCc3c2c(C2CCC2)n(C)c3C(=O)Nc2ccc(F)c(Cl)c2)n1` (single isomer, unassigned) [Compound 96, (1-Methyl-1H-1,2,4-triazol-3-yl)methyl (1-((3-chloro-4-fluorophenyl)carbamoyl)-3-cyclobutyl-2-methyl-2,4,5,6-tetrahydrocyclopenta[c]pyrrol-4-yl)carbamate] as the molecule, how does the pEC50 read?
**A.** Its pEC50 is 6.38.

**Q.** `Cn1cc2c(c1C(=O)Nc1ccc(F)c(Cl)c1)CCC2NC(=O)OCc1n[nH]nc1C1CC1` (single isomer, unassigned) [Compound 147, (5-Cyclopropyl-2H-1,2,3-triazol-4-yl)methyl (1-((3-chloro-4-fluorophenyl)carbamoyl)-2-methyl-2,4,5,6-tetrahydrocyclopenta[c]pyrrol-4-yl)carbamate] was tested. Which pEC50 did it give?
**A.** The pEC50 was 5.44.

**Q.** How did the pEC50 turn out when `Cn1cc2c(c1C(=O)Nc1ccc(F)c(Cl)c1)CCC2NC(=O)OC[C@@H]1CCC(=O)N1` (single isomer, unassigned) [Compound 118] was run?
**A.** Its pEC50 is 6.80.

**Q.** With `Cn1cc2c(c1C(=O)Nc1ccc(F)c(Cl)c1)CCC2NC(=O)OCc1ncco1` (single isomer, unassigned) [Compound 35, Oxazol-2-ylmethyl (1-((3-chloro-4-fluorophenyl)carbamoyl)-2-methyl-2,4,5,6-tetrahydrocyclopenta[c]pyrrol-4-yl)carbamate] as the molecule, how does the pEC50 read?
**A.** The pEC50 was 5.74.

Same assay, conditions: Hepatitis B virus, HepDE19, 168 h, HepDE19 cells, Tet-free medium, 7 day-incubation, rcDNA measured by Quantigene 2.0 bDNA assay, top concentration 25 μM; read-out: DE-19 bDNA EC50

**Q.** `Cn1cnc(COC(=O)NC2CCc3c2cn(C)c3C(=O)Nc2ccc(F)c(C(F)F)c2)n1` (single isomer, unassigned) [Compound 70, (1-Methyl-1H-1,2,4-triazol-3-yl)methyl (1-((3-(difluoromethyl)-4-fluorophenyl)carbamoyl)-2-methyl-2,4,5,6-tetrahydrocyclopenta[c]pyrrol-4-yl)carbamate] was tested. Which pEC50 did it give?
**A.** The pEC50 was 7.15.

**Q.** With `CCn1cc2c(c1C(=O)Nc1ccc(F)c(Cl)c1)CCC2NS(=O)(=O)C1CC1` (centres unmarked) [Compound 12, N-(3-Chloro-4-fluorophenyl)-4-(cyclopropanesulfonamido)-2-ethyl-2,4,5,6-tetrahydrocyclopenta[c]pyrrole-1-carboxamide] as the molecule, how does the pEC50 read?
**A.** The pEC50 was 6.59.

**Q.** How did the pEC50 turn out when `Cn1cnc(COC(=O)NC2CCc3c2cn(C)c3C(=O)Nc2ccc(F)cc2)n1` (single isomer, unassigned) [Compound 65, (1-methyl-1H-1,2,4-triazol-3-yl)methyl (1-((4-fluorophenyl)carbamoyl)-2-methyl-2,4,5,6-tetrahydrocyclopenta[c]pyrrol-4-yl)carbamate] was run?
**A.** The pEC50 was 6.09.

**Q.** `Cn1cnc(CNC(=O)NC2CCCc3c2cn(C)c3C(=O)Nc2ccc(F)c(Cl)c2)n1` (single isomer, unassigned) [Compound 84, N-(3-Chloro-4-fluorophenyl)-2-methyl-4-(3-((1-methyl-1H-1,2,4-triazol-3-yl)methyl)ureido)-4,5,6,7-tetrahydro-2H-isoindole-1-carboxamide] was tested. Which pEC50 did it give?
**A.** The pEC50 was 6.47.

**Q.** How did the pEC50 turn out when `Cn1cc2c(c1C(=O)Nc1ccc(F)c(Cl)c1)CCCC2=O` [Compound 45, N-(3-chloro-4-fluorophenyl)-2-methyl-4-oxo-4,5,6,7-tetrahydro-2H-isoindole-1-carboxamide] was run?
**A.** Its pEC50 is 7.15.

Same assay, conditions: read-out: DE-19 bDNA EC50; HepDE19 cells, Tet-free medium, 7 day-incubation, rcDNA measured by Quantigene 2.0 bDNA assay, top concentration 25 μM

**Q.** `COC(=O)NC1CCn2c(C(=O)Nc3ccc(F)c(Cl)c3)ccc21` (single isomer, unassigned) [Compound 38, Methyl (5-((3-chloro-4-fluorophenyl)carbamoyl)-2,3-dihydro-1H-pyrrolizin-1-yl)carbamate] was tested. Which pEC50 did it give?
**A.** The pEC50 was 5.33.

**Q.** With `Cn1cnc(COC(=O)NC2CCc3c2c(-c2ccccc2)n(C)c3C(=O)Nc2ccc(F)c(Cl)c2)n1` (single isomer, unassigned) [Compound 109, (1-Methyl-1H-1,2,4-triazol-3-yl)methyl (1-((3-chloro-4-fluorophenyl)carbamoyl)-2-methyl-3-phenyl-2,4,5,6-tetrahydrocyclopenta[c]pyrrol-4-yl)carbamate] as the molecule, how does the pEC50 read?
**A.** The pEC50 was 4.62.

**Q.** With `Cn1ccc(COC(=O)NC2CCCc3c2cn(C)c3C(=O)Nc2ccc(F)c(Cl)c2)n1` (single isomer, unassigned) [Compound 77, (1-Methyl-1H-pyrazol-3-yl)methyl(1-((3-chloro-4-fluorophenyl)carbamoyl)-2-methyl-4,5,6,7-tetrahydro-2H-isoindol-4-yl)carbamate] as the molecule, how does the pEC50 read?
**A.** Its pEC50 is 7.15.

**Q.** How did the pEC50 turn out when `Cn1cc2c(c1C(=O)Nc1ccc(F)c(Cl)c1)CCC2NC(=O)OCc1nnnn1C` (single isomer, unassigned) [Compound 144, (1-Methyl-1H-tetrazol-5-yl)methyl(1-((3-chloro-4-fluorophenyl)carbamoyl)-2-methyl-2,4,5,6-tetrahydrocyclopenta[c]pyrrol-4-yl)carbamate] was run?
**A.** Its pEC50 is 7.22.
